# Test results published in US20240174618A1, “SUBSTITUTED (2-HETEROARYLOXYPHENYL)SULFONATES, SALTS THEREOF AND THEIR USE AS HERBICIDAL AGENTS” (Bayer Aktiengesellschaft, priority 2021, published 2024).
# Assays:
# Type in all cases: in vivo
# [1] = test system: Amaranthus retroflexus (AMARE); experiment: C. Herbicidal pre-emergence efficacy, AMARE; conditions: scored after about 3 weeks
# Text: (§1) Seeds of monocotyledonous and dicotyledonous weed plants and crop plants were placed in plastic or organic planting pots and covered with soil. The compounds of the invention, formulated in the form of wettable powders (WP) or as emulsion concentrates (EC), were then applied to the surface of the covering soil as aqueous suspension or emulsion with addition of 0.5% additive at a water application rate equivalent to 600 l/ha (converted). After the treatment, the pots were placed in a greenhouse and kept under good growth conditions for the test plants. After about 3 weeks, the efficacy of the preparations was scored visually in comparison with untreated controls as percentages. For example, • 100% efficacy=plants have died, • 0% efficacy=like untreated control plants.
# (§2) Tables C1a to C14b below show the effects of selected compounds of the general formula (I) according to table 1 on various harmful plants at an application rate corresponding to 320 g/ha or less, which were obtained by the experimental procedure mentioned above.
# [2] = test system: Zea mays (ZEAMX); experiment: D. Pre-emergence effect on useful plants, ZEAMX; conditions: useful plant
# Text: as §1
# (§3) Tables D1a to D5b below show the effects of selected compounds of the general formula (I) according to table 1 on various useful plants at an application rate corresponding to 320 g/ha or less, which were obtained by the experimental procedure mentioned above.
# [3] = test system: Triticum aestivum (TRZAS); experiment: D. Pre-emergence effect on useful plants, TRZAS; conditions: useful plant
# Text: as §1, §3
# [4] = test system: Amaranthus retroflexus (AMARE); experiment: E. Herbicidal post-emergence efficacy, AMARE
# Protocol: (§4) Seeds of monocotyledonous and dicotyledonous weeds and crop plants were placed in sandy loam in plastic or organic planting pots, covered with soil and cultivated in a greenhouse under controlled growth conditions. 2 to 3 weeks after sowing, the test plants were treated at the one-leaf stage. The compounds of the invention, formulated in the form of wettable powders (WP) or as emulsion concentrates (EC), were then sprayed onto the green parts of the plants as aqueous suspension or emulsion with addition of 0.5% additive at a water application rate of 600 l/ha (converted). After the test plants had been kept in the greenhouse under optimum growth conditions for about 3 weeks, the activity of the preparations was rated visually in comparison to untreated controls.
# (§5) For example, • 100% efficacy=plants have died, • 0% action=like untreated control plants.
# (§6) Tables E1a to E12b below show the effects of selected compounds of the general formula (I) according to table 1 on various harmful plants at an application rate corresponding to 320 g/ha or less, which were obtained by the experimental procedure mentioned above.
# [5] = test system: Veronica persica (VERPE); experiment: E. Herbicidal post-emergence efficacy, VERPE
# Protocol: as §4, §5, §6
# [6] = test system: Viola tricolor (VIOTR); experiment: E. Herbicidal post-emergence efficacy, VIOTR
# Protocol: as §4, §5, §6
# [7] = test system: Kochia scoparia (KCHSC); experiment: E. Herbicidal post-emergence efficacy, KCHSC
# Protocol: as §4, §5, §6
# [8] = test system: Zea mays (ZEAMX); experiment: F. Post-emergence effect on useful plants, ZEAMX; conditions: useful plant
# Protocol: as §4, §5
# (§7) Tables F1a to F4 below show the effects of selected compounds of the general formula (I) according to table 1 on various useful plants at an application rate corresponding to 320 g/ha or less, which were obtained by the experimental procedure mentioned above.
# [9] = test system: Triticum aestivum (TRZAS); experiment: F. Post-emergence effect on useful plants, TRZAS; conditions: useful plant
# Protocol: as §4, §5, §7
# [10] = test system: Digitaria sanguinalis (DIGSA); experiment: C. Herbicidal pre-emergence efficacy, DIGSA; conditions: scored after about 3 weeks
# Text: as §1, §2
# [11] = test system: Echinochloa crus-galli (ECHCG); experiment: C. Herbicidal pre-emergence efficacy, ECHCG; conditions: 320 g/ha, scored after about 3 weeks
# Text: as §1, §2
# [12] = test system: Lolium rigidum (LOLRI); experiment: C. Herbicidal pre-emergence efficacy, LOLRI; conditions: 320 g/ha, scored after about 3 weeks
# Text: as §1, §2
# [13] = test system: Setaria viridis (SETVI); experiment: C. Herbicidal pre-emergence efficacy, SETVI; conditions: 320 g/ha, scored after about 3 weeks
# Text: as §1, §2
# [14] = test system: Veronica persica (VERPE); experiment: C. Herbicidal pre-emergence efficacy, VERPE; conditions: 320 g/ha, scored after about 3 weeks
# Text: as §1, §2
# [15] = test system: Viola tricolor (VIOTR); experiment: C. Herbicidal pre-emergence efficacy, VIOTR
# Text: as §1, §2
# [16] = test system: Kochia scoparia (KCHSC); experiment: C. Herbicidal pre-emergence efficacy, KCHSC; conditions: application rate 320 g/ha
# Text: as §1, §2
# [17] = test system: Abutilon theophrasti (ABUTH); experiment: E. Herbicidal post-emergence efficacy, ABUTH; conditions: application rate 320 g/ha
# Protocol: as §4, §5, §6
# [18] = test system: Echinochloa crus-galli (ECHCG); experiment: E. Herbicidal post-emergence efficacy, ECHCG; conditions: application rate 320 g/ha
# Protocol: as §4, §5, §6
# [19] = test system: Pharbitis purpurea (PHBPU); experiment: E. Herbicidal post-emergence efficacy, PHBPU; conditions: application rate 320 g/ha
# Protocol: as §4, §5, §6
Pre-emergence efficacy against ZEAMX in % ([2]; application rate 80 g/ha),Post-emergence efficacy against ZEAMX in % ([8]; application rate 80 g/ha),Post-emergence efficacy against ZEAMX in % ([8]; application rate 320 g/ha),Post-emergence efficacy against TRZAS in % ([9]; application rate 80 g/ha),Post-emergence efficacy against TRZAS in % ([9]; application rate 320 g/ha),Structure (SMILES),Pre-emergence efficacy against AMARE ([1]; 320 g/ha),Post-emergence efficacy against AMARE in % ([4]; application rate 80 g/ha),Post-emergence efficacy against AMARE in % ([4]; application rate 320 g/ha),Post-emergence efficacy against VERPE in % ([5]; application rate 80 g/ha),Post-emergence efficacy against VERPE in % ([5]; application rate 320 g/ha),Post-emergence efficacy against VIOTR in % ([6]; application rate 320 g/ha),Post-emergence efficacy against KCHSC in % ([7]; application rate 320 g/ha),also measured
0%,0%,20%,0%,0%,N#Cc1cccc(Oc2ncc(Cl)cn2)c1OS(=O)(=O)CCC(F)(F)F [Example I-82],80%,90%,100%,100%,100%,80%,90%,Pre-emergence efficacy against TRZAS in % ([3]; application rate 80 g/ha): 0%; Pre-emergence efficacy against TRZAS in % ([3]; application rate 320 g/ha): 0%; Post-emergence efficacy against VIOTR in % ([6]; application rate 80 g/ha): 80%; Post-emergence efficacy against KCHSC in % ([7]; application rate 80 g/ha): 90%
0%,10%,20%,0%,20%,Cc1cccc(Oc2ncc(Cl)cn2)c1OS(=O)(=O)CC=C(Cl)Cl [Example I-83],100%,90%,100%,80%,100%,100%,80%,Pre-emergence efficacy against AMARE ([1]; 80 g/ha): 80%; Pre-emergence efficacy against DIGSA ([10]; 80 g/ha): 80%; Pre-emergence efficacy against DIGSA ([10]; 320 g/ha): 100%; Pre-emergence efficacy against ECHCG [11]: 90%; Pre-emergence efficacy against LOLRI [12]: 80%; Pre-emergence efficacy against SETVI [13]: 100%; Pre-emergence efficacy against VERPE [14]: 90%; Pre-emergence efficacy against VIOTR in % ([15]; application rate 80 g/ha): 90%; Pre-emergence efficacy against VIOTR in % ([15]; application rate 320 g/ha): 100%; Pre-emergence efficacy against KCHSC in % [16]: 80%; Pre-emergence efficacy against ZEAMX in % ([2]; application rate 320 g/ha): 0%; Post-emergence efficacy against ABUTH in % [17]: 80%; Post-emergence efficacy against ECHCG in % [18]: 80%; Post-emergence efficacy against PHBPU in % [19]: 100%
